Laboratory results taken from patent US7915291B2, “Hepatitis C virus inhibitors” (Bristol-Myers Squibb Company, priority 2002, dated 2011).
Read-outs that look alike come from different tables or passages of the source.

Tests used:
[1] = target: HCV NS3/4A protease complex, BMS strain (UniProt P27958, C1454S/C1711G, species not given/STRAIN_BMS); experiment: Recombinant HCV NS3/4A protease complex FRET peptide assay (BMS strain); type: biochemical, HCV genotype 1a; details: NS3/4A BMS strain; read-out: IC50 range
Procedure, shortened: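 Recombinant BMS-strain NS3/4A (His-tagged NS4A with three-lysine tail, E. coli) at 2-3 nM preincubated 1 min with compound, then 2 μM ester-linked NS4A/NS4B-based FRET peptide added. Fluorescence followed in real time ~15 min at 25° C. Percent inhibition from slope of linear fluorescence change versus no-compound control.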

[2] = tested on: HCV replicon in Huh7 cells; experiment: HCV replicon cell-based assay; set-up: species or system HCV strain 1B; details: HCV replicon, Huh7 cells, read-out: EC50 range

| SMILES | IC50 [1] [nM] | EC50 ([2]; Hepatitis C virus, Huh-7) [nM] | EC50 [2] [nM] |
| --- | --- | --- | --- |
| C=CC1C[C@]1(NC(=O)[C@@H]1C[C@@H](Oc2nc3c(c4ccccc24)CCC3)CN1C(=O)[C@@H](NC(=O)OC(C)(C)C)C(C)(C)C)C(=O)NS(=O)(=O)C1CC1 (stereo partly drawn) [Compound 215, BOCNH-P3(L-t-BuGly)-P2[(1R)-(2,3-dihydro-1 H-4aza -cyclopenta[α]naphthalen-5-yloxy)-S-proline]-P1(1R,2S VinylAcca)-CONHSO2Cyclopropane] | < 100 | < 100 |  |
| C=CC1C[C@]1(NC(=O)[C@@H]1C[C@@H](Oc2nc3c(c4ccccc24)OCC3)CN1C(=O)[C@@H](NC(=O)OC(C)(C)C)C(C)(C)C)C(=O)NS(=O)(=O)C1CC1 (stereo partly drawn) [Compound 219, BOCNH-P3(L-t-BuGly)-P2[(4R)-(2,3-dihydro-1-oxa-4aza -cyclopenta[α]naphthalen-5-yloxy)-S-proline]-P1(1R,2S VinylAcca)-CONHSO2Cyclopropane] | < 100 | < 100 |  |
| C=CC1C[C@]1(NC(=O)[C@@H]1C[C@@H](Oc2nc3ccoc3c3ccccc23)CN1C(=O)[C@@H](NC(=O)OC(C)(C)C)C(C)(C)C)C(=O)NS(=O)(=O)C1CC1 (stereo partly drawn) [Compound 220, BOCNH-P3(L-t-BuGly)-P2[(4R)-(1-oxa-4-aza-cyclopenta[α]naphthalen-5-yloxy)-S-proline]-P1(1R,2S VinylAcca)-CONHSO2Cyclopropane] | < 100 | < 100 |  |
| C=CC1C[C@]1(NC(=O)[C@@H]1C[C@@H](Oc2nc(Br)c(OC)c3ccccc23)CN1C(=O)[C@@H](NC(=O)OC(C)(C)C)C(C)(C)C)C(=O)NS(=O)(=O)C1CC1 (some centres unmarked) [Compound 223] | < 100 | < 100 |  |
| C=CC1CC1(NC(=O)C1CC(Oc2nc(Br)c(O)c3ccccc23)CN1C(=O)C(NC(=O)OC(C)(C)C)C(C)(C)C)C(=O)NS(=O)(=O)C1CC1 (centres unmarked) [Compound 224] | < 100 | 100 to 1000 |  |
| C=CC1CC1(NC(=O)C1CC(Oc2nc(Br)c(OCOCC[Si](C)(C)C)c3ccccc23)CN1C(=O)C(NC(=O)OC(C)(C)C)C(C)(C)C)C(=O)NS(=O)(=O)C1CC1 (centres unmarked) [Compound 225] | < 100 | 100 to 1000 |  |
| C=CC1C[C@]1(NC(=O)[C@@H]1C[C@@H](Oc2nc3c(c4ccccc24)OCOC3)CN1C(=O)[C@@H](NC(=O)OC(C)(C)C)C(C)(C)C)C(=O)NS(=O)(=O)C1CC1 (stereo partly drawn) [Compound 227, BOCNH-P3(L-t-BuGly)-P2[(4R)-(1,3-oxazino[5,6-c]isoquinoline-6-oxo)-S-proline]-P1(1R,2S VinylAcca)-CONHSO2Cyclopropane] | < 100 | < 100 |  |
| C=C[C@@H]1C[C@]1(NC(=O)[C@@H]1C[C@@H](Oc2nc(-c3ccoc3)c(OC)c3ccccc23)CN1C(=O)[C@@H](NC(=O)OC(C)(C)C)C(C)(C)C)C(=O)NS(=O)(=O)C1CC1 [Compound 229, BOCNH-P3(L-t-BuGly)-P2[(4R)-(3-furan-3-yl-4methoxy -isoquinolin-1-oxo)-S-proline]-P1(1R,2S VinylAcca)-CONHSO2Cyclopropane] | < 100 |  | < 100 |
| C=C[C@@H]1C[C@]1(NC(=O)[C@@H]1C[C@@H](Oc2nc(-c3ccco3)c(OC)c3ccccc23)CN1C(=O)[C@@H](NC(=O)OC(C)(C)C)C(C)(C)C)C(=O)NS(=O)(=O)C1CC1 [Compound 230, BOCNH-P3(L-t-BuGly)-P2[(4R)-(3-furan-2-yl-4-methoxy -isoquinolin-1-oxo)-S-proline]-P1(1R,2S VinylAcca)-CONHSO2Cyclopropane] | 100 to 1000 |  | 100 to 1000 |
| C=CC1C[C@]1(NC(=O)[C@@H]1C[C@@H](Oc2nc(-c3nccs3)c(OC)c3ccccc23)CN1C(=O)[C@@H](NC(=O)OC(C)(C)C)C(C)(C)C)C(=O)NS(=O)(=O)C1CC1 (stereo partly drawn) [Compound 232, BOCNH-P3(L-t-BuGly)-P2[(4R)-(4-methoxy-3-thiazol-2-yl -isoquinolin-1-oxo)-S-proline]-P1(1R,2S VinylAcca)-CONHSO2Cyclopropane] | < 100 | < 100 |  |
| C=CC1C[C@]1(NC(=O)[C@@H]1C[C@@H](Oc2nccc3occc23)CN1C(=O)[C@@H](NC(=O)OC(C)(C)C)C(C)(C)C)C(=O)NS(=O)(=O)C1CC1 (some centres unmarked) [Compound 233] | 100 to 1000 | 100 to 1000 |  |
| C=CC1C[C@]1(NC(=O)[C@@H]1C[C@@H](Oc2nccc3sccc23)CN1C(=O)[C@@H](NC(=O)OC(C)(C)C)C(C)(C)C)C(=O)NS(=O)(=O)C1CC1 (some centres unmarked) [Compound 235] | < 100 | 100 to 1000 |  |
| C=CC1C[C@]1(NC(=O)[C@@H]1C[C@@H](Oc2cnc3ccccc3n2)CN1C(=O)[C@@H](NC(=O)OC(C)(C)C)C(C)(C)C)C(=O)NS(=O)(=O)C1CC1 (stereo partly drawn) [Compound 237, BOCNH-P3(L-t-BuGly)-P2[(4R)-(quinoxaline-2-oxo)-S-proline]-P1(1R,2S VinylAcca)-CONHSO2Cyclopropane] | < 100 | 100 to 1000 |  |
| C=CC1C[C@]1(NC(=O)[C@@H]1C[C@@H](Oc2cc(C(F)(F)F)nc3ccc(F)cc23)CN1C(=O)[C@@H](NC(=O)OC(C)(C)C)C(C)(C)C)C(=O)NS(=O)(=O)C1CC1 (stereo partly drawn) [Compound 238, BOCNH-P3(L-t-BuGly)-P2[(4R)-(2-trifluoro-6-fluoroquinoline-4-oxo)-S-proline]-P1(1R,2S VinylAcca)-CONHSO2Cyclopropane] | < 100 | 100 to 1000 |  |
| C=CC1C[C@]1(NC(=O)[C@@H]1C[C@@H](Oc2ccnc3ccc(F)cc23)CN1C(=O)[C@@H](NC(=O)OC(C)(C)C)C(C)(C)C)C(=O)NS(=O)(=O)C1CC1 (stereo partly drawn) [Compound 239, BOCNH-P3(L-t-BuGly)-P2[(4R)-(6-fluoroquinoline-4-oxo)-S -proline]-P1(1R,2S VinylAcca)-CONHSO2Cyclopropane] | < 100 | < 100 |  |
| C=CC1C[C@]1(NC(=O)[C@@H]1C[C@@H](Oc2ccc3nccc(Cl)c3c2)CN1C(=O)[C@@H](NC(=O)OC(C)(C)C)C(C)(C)C)C(=O)NS(=O)(=O)C1CC1 (stereo partly drawn) [Compound 240, BOCNH-P3(L-t-BuGly)-P2[(4R)-(4-chloroquinoline-6-oxo)-S -proline]-P1(1R,2S VinylAcca)-CONHSO2Cyclopropane] | < 100 | < 100 |  |
| C=CC1C[C@]1(NC(=O)[C@@H]1C[C@@H](Oc2ccnc3c(F)cccc23)CN1C(=O)[C@@H](NC(=O)OC(C)(C)C)C(C)(C)C)C(=O)NS(=O)(=O)C1CC1 (stereo partly drawn) [Compound 241, BOCNH-P3(L-t-BuGly)-P2[(4R)-(8-fluoroquinoline-4-oxo)-S -proline]-P1(1R,2S VinylAcca)-CONHSO2Cyclopropane] | < 100 | < 100 |  |
| C=CC1C[C@]1(NC(=O)[C@@H]1C[C@@H](Oc2cccc3c(Cl)ccnc23)CN1C(=O)[C@@H](NC(=O)OC(C)(C)C)C(C)(C)C)C(=O)NS(=O)(=O)C1CC1 (stereo partly drawn) [Compound 242, BOCNH-P3(L-t-BuGly)-P2[(4R)-(4-chloroquinoline-8-oxo)-S -proline]-P1(1R,2S VinylAcca)-CONHSO2Cyclopropane] | < 100 | 1000 to 10000 |  |
| C=CC1C[C@]1(NC(=O)[C@@H]1C[C@@H](Oc2nc3ccccc3nc2O)CN1C(=O)[C@@H](NC(=O)OC(C)(C)C)C(C)(C)C)C(=O)NS(=O)(=O)C1CC1 (stereo partly drawn) [Compound 243, BOCNH-P3(L-t-BuGly)-P2[(4R)-(3-hydroxyquinoxaline-2-oxo)-S -proline]-P1(1R,2S VinylAcca)-CONHSO2Cyclopropane] | 100 to 1000 | 10000 to 100000 |  |
| C=CC1C[C@]1(NC(=O)[C@@H]1C[C@@H](Oc2nccc3cc(C(=O)N(C)C)ccc23)CN1C(=O)[C@@H](NC(=O)OC(C)(C)C)C(C)(C)C)C(=O)NS(=O)(=O)C1CC1 (stereo partly drawn) [Compound 244, BOCNH-P3(L-t-BuGly)-P2-[(4R) -(6-carboxylic acid dimethylamideisoquinoline-1-oxo)-S-proline]-P1(1R,2S VinylAcca) -CONHSO2Cyclopropane] | < 100 | 10000 to 100000 |  |
| C=C[C@@H]1C[C@]1(NC(=O)[C@@H]1C[C@@H](Oc2ncc(C)c3ccccc23)CN1C(=O)[C@@H](NC(=O)OC(C)(C)C)C(C)(C)C)C(=O)NS(=O)(=O)C1CC1 [Compound 250] | < 100 | < 100 |  |
| C=C[C@@H]1C[C@]1(NC(=O)[C@@H]1C[C@@H](Oc2ncc(OC)c3ccccc23)CN1C(=O)[C@@H](NC(=O)OC(C)(C)C)C(C)(C)C)C(=O)NS(=O)(=O)C1CC1 [Compound 251] | < 100 | < 100 |  |
| C=C[C@@H]1C[C@]1(NC(=O)[C@@H]1C[C@@H](Oc2nccc3c(C)cccc23)CN1C(=O)[C@@H](NC(=O)OC(C)(C)C)C(C)(C)C)C(=O)NS(=O)(=O)C1CC1 [Compound 252] | < 100 | < 100 |  |
| C=C[C@@H]1C[C@]1(NC(=O)[C@@H]1C[C@@H](Oc2nccc3c(OC)cccc23)CN1C(=O)[C@@H](NC(=O)OC(C)(C)C)C(C)(C)C)C(=O)NS(=O)(=O)C1CC1 [Compound 253] | < 100 | < 100 |  |
| C=C[C@@H]1C[C@]1(NC(=O)[C@@H]1C[C@@H](Oc2nccc3c(Cl)cccc23)CN1C(=O)[C@@H](NC(=O)OC(C)(C)C)C(C)(C)C)C(=O)NS(=O)(=O)C1CC1 [Compound 254] | < 100 | < 100 |  |
| C=C[C@@H]1C[C@]1(NC(=O)[C@@H]1C[C@@H](Oc2nccc3c(F)cccc23)CN1C(=O)[C@@H](NC(=O)OC(C)(C)C)C(C)(C)C)C(=O)NS(=O)(=O)C1CC1 [Compound 255] | < 100 | 100 to 1000 |  |
| C=C[C@@H]1C[C@]1(NC(=O)[C@@H]1C[C@@H](Oc2nccc3ccc(F)cc23)CN1C(=O)[C@@H](NC(=O)OC(C)(C)C)C(C)(C)C)C(=O)NS(=O)(=O)C1CC1 [Compound 257] | < 100 | < 100 |  |
| C=C[C@@H]1C[C@]1(NC(=O)[C@@H]1C[C@@H](Oc2nccc3ccc(Cl)cc23)CN1C(=O)[C@@H](NC(=O)OC(C)(C)C)C(C)(C)C)C(=O)NS(=O)(=O)C1CC1 [Compound 258] | < 100 | < 100 |  |
